Experimental data taken from US10501458B2, “Substituted bicyclic fused ring compounds as indoleamine-2,3-dioxygenase inhibitors” (Merck Sharp & Dohme Corp., priority 2015, dated 2019).

What was measured:
[1] = target: T1, TDO (Homo sapiens (Human), UniProt P48775); assay: A172 kynurenine cell-based assay; details: A172 human glioblastoma cells, 500 μM L-tryptophan, 48 hours; for IC50: read-out: A172 Kynurenine cell based assay, pIC50 (converted)
Description: (§1) Exemplary compounds of the invention were prepared, and tested to determine their effect as TDO and/or IDO inhibitors. Two different assays were employed: 1. a cell-based assay for detecting the effect of test compounds on kynurenine production in two different cancer cell types. This assay utilised cancer cells which expressed either TDO or IDO and as such was used as a means of testing compound activity at these two enzymes in a cell-based context. 2. a TDO and IDO biochemical coupled assay which utilised recombinantly produced and purified TDO and IDO enzymes in combination with the enzyme formamidase. This coupled enzyme system allowed conversion of N-formylkynurenine produced by TDO or IDO activity to kynurenine which was then quantified by fluorescence following addition of Erhlich's Reagent The protocols for these are set out below.
(§2) Cell Based Assay for Detection of Kynurenine Produced by TDO and/or IDO
(§3) A172 (human glioblastoma) and SKOV3 (human ovarian adenocarcinoma) cells were seeded in a 96 well plate at 30,000 or 40,000 cells per well respectively in phenol red-free RPMI supplemented with 10% FCS, 2 mM L-glutamine and 500 μM L-tryptophan. IDO expression was induced in the SKOV3 cells by the addition of 500 ng/ml IFN-γ. Cells were incubated at 37° C. with or without the addition of test compound. After 48 hours, the cells were removed by centrifugation and Erhlich's reagent was added to the supernatant. The Erhlich's reagent was incubated for 5 minutes before the absorbance was read at 490 nm.

[2] = target: T2, IDO (Homo sapiens (Human), UniProt P14902); assay: SKOV3 kynurenine cell-based assay (IDO induced by IFN-γ); details: SKOV3 human ovarian adenocarcinoma cells, 500 ng/ml IFN-γ, 500 μM L-tryptophan, 48 hours; for IC50: read-out: SKOV3 Kynurenine cell based assay, pIC50 (converted)
Description: as §1, §2, §3

[3] = target: T2, IDO; assay: hIDO biochemical coupled assay; details: 45 μM L-tryptophan, 17 minutes at room temperature; for IC50: read-out: hIDO biochemical assay, pIC50 (converted)
Description: as §1
(§4) TDO and IDO Biochemical Coupled Assay
(§5) Recombinant human IDO or TDO was incubated in 50 mM KPO4 (pH 7.0), 0.5 mM EGTA, 0.5 mM EDTA, 0.05% Triton™ X100, 20 mM ascorbate, 10 μM methylene blue, 500 U/ml catalase, 50 μg/ml KynB (kynurenine formamidase). TDO assays were carried out in the presence of 330 μM L-tryptophan, while IDO assays had the addition of 45 μM L-tryptophan. After incubation for 17 minutes at room temperature the reactions were stopped by the addition of Erhlich's reagent and incubated at room temperature for 5 minutes before the fluorescence was read (Ex 475, Em530).

[4] = target: T1, TDO; assay: hTDO biochemical coupled assay; details: 330 μM L-tryptophan, 17 minutes at room temperature
Description: as §1, §4, §5

T1 sequence (P48775 whole entry): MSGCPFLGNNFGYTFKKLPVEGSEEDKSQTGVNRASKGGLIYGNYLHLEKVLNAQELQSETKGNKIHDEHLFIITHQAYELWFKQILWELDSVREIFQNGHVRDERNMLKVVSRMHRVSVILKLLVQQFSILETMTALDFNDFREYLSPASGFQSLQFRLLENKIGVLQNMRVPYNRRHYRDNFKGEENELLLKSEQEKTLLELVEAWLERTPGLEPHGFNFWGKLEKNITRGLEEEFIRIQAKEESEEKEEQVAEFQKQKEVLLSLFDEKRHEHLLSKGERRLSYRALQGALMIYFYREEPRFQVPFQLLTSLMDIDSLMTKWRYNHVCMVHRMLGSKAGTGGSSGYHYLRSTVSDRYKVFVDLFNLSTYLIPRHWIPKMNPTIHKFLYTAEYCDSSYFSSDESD
T2 sequence (P14902 whole entry): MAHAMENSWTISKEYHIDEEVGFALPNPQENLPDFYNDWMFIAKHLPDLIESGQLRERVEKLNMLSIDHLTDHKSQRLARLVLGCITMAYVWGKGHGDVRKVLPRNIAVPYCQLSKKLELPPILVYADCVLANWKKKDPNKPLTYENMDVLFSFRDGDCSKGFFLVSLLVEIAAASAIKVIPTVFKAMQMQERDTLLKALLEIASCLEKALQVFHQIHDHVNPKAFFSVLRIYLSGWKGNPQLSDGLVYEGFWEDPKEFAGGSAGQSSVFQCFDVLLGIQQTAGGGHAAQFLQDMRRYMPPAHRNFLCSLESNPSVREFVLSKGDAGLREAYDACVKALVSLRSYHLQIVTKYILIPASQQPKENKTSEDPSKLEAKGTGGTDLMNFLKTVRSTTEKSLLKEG

Structure (SMILES) | IC50 [1] | IC50 [2] | IC50 [3] | A172 Kynurenine cell based assay, pIC50 [1] | SKOV3 Kynurenine cell based assay, pIC50 [2] | hTDO biochemical assay, pIC50 [4] | hIDO biochemical assay, pIC50 [3]
CS(=O)(=O)c1ccc(-c2cc(Cl)cn3cncc23)cc1 [Compound 1010, 6-chloro-8-(4-(methylsulfonyl)phenyl)imidazo[1,5-a]pyridine] | ≤ 3.16 µM | 32.4 to 100 µM | 3.24 to 31.6 µM | – | – | – | –
O=C(Nc1cccn2cncc12)c1ccccc1 [Compound 1001] | – | – | – | +/− (+/− = pIC50 <4.00) | + (+ = pIC50 4.00-4.49) | +/− (+/− = pIC50 <4.00) | +/− (+/− = pIC50 <4.00)
CC1(C)CN(c2cc(C(F)(F)F)cc3cncn23)CCN1S(C)(=O)=O [Compound 1026] | – | – | – | +++ (+++ = pIC50 ≥5.50) | +++ (+++ = pIC50 ≥5.50) | – | –
OCCc1cc(C(F)(F)F)cn2cncc12 [Compound 1008] | – | – | – | +/− (+/− = pIC50 <4.00) | + (+ = pIC50 4.00-4.49) | +/− (+/− = pIC50 <4.00) | +/− (+/− = pIC50 <4.00)
CS(=O)(=O)N1CCN(c2cc(C(F)(F)F)cn3cncc23)CC1 [Compound 1003] | – | – | – | ++ (++ = pIC50 4.50-5.49) | + (+ = pIC50 4.00-4.49) | – | +/− (+/− = pIC50 <4.00)
CC1(C)CN(c2cc(Cl)cc3cncn23)CCN1S(C)(=O)=O [Compound 1032] | – | – | – | ++ (++ = pIC50 4.50-5.49) | +++ (+++ = pIC50 ≥5.50) | – | –
CS(=O)(=O)c1ccc(-c2cc(Cl)cc3cncn23)cc1 [Compound 1012] | – | – | – | ++ (++ = pIC50 4.50-5.49) | + (+ = pIC50 4.00-4.49) | – | ++ (++ = pIC50 4.50-5.49)
OC1(c2cc(C(F)(F)F)cn3cncc23)CCCCC1 [Compound 1028] | – | – | – | +++ (+++ = pIC50 ≥5.50) | ++ (++ = pIC50 4.50-5.49) | – | ++ (++ = pIC50 4.50-5.49)
CS(=O)(=O)N1CCN(c2cc(C(F)(F)F)cc3cncn23)CC1 [Compound 1019] | – | – | – | ++ (++ = pIC50 4.50-5.49) | + (+ = pIC50 4.00-4.49) | ++ (++ = pIC50 4.50-5.49) | ++ (++ = pIC50 4.50-5.49)
CS(=O)(=O)N1CCC(Nc2cc(Cl)cc3cncn23)CC1 [Compound 1030] | – | – | – | ++ (++ = pIC50 4.50-5.49) | ++ (++ = pIC50 4.50-5.49) | – | –
CS(=O)(=O)N1CCN(c2cc(Cl)cc3cncn23)CC1 [Compound 1013] | – | – | – | + (+ = pIC50 4.00-4.49) | + (+ = pIC50 4.00-4.49) | ++ (++ = pIC50 4.50-5.49) | ++ (++ = pIC50 4.50-5.49)
CC1(C)CN(c2cc(C(F)(F)F)cn3cncc23)CCN1S(C)(=O)=O [Compound 1014, 8-(3,3-dimethyl-4-(methylsulfonyl)piperazin-1-yl)-6-(trifluoromethyl)imidazo[1,5-a]pyridine] | ≤ 3.16 µM | ≤ 3.16 µM | – | – | – | – | –
CS(=O)(=O)N1CCC(c2cc(C(F)(F)F)cn3cncc23)CC1 [Compound 1005, 8-(1-(methylsulfonyl)piperidin-4-yl)-6-(trifluoromethyl)imidazo[1,5-a]pyridine] | 3.24 to 31.6 µM | 32.4 to 100 µM | 3.24 to 31.6 µM | – | – | – | –
CC1(C)CN(c2cc(Br)cn3cncc23)CCN1S(C)(=O)=O [Compound 1022] | – | – | – | +++ (+++ = pIC50 ≥5.50) | +++ (+++ = pIC50 ≥5.50) | – | –
CS(=O)(=O)Nc1ccc(C2CCN(c3cc(C(F)(F)F)cc4cncn34)CC2)cc1 [Compound 1023] | – | – | – | ++ (++ = pIC50 4.50-5.49) | +++ (+++ = pIC50 ≥5.50) | – | –
CC(=O)N1CCN(c2cc(C(F)(F)F)cn3cncc23)CC1 [Compound 1002] | – | – | – | ++ (++ = pIC50 4.50-5.49) | + (+ = pIC50 4.00-4.49) | – | +/− (+/− = pIC50 <4.00)

Structure (SMILES) | IC50 [1] | IC50 [2] | IC50 [3] | A172 Kynurenine cell based assay, pIC50 [1] | SKOV3 Kynurenine cell based assay, pIC50 [2] | hTDO biochemical assay, pIC50 [4] | hIDO biochemical assay, pIC50 [3]
CS(=O)(=O)N1CCC(Nc2cc(C(F)(F)F)cn3cncc23)CC1 [Compound 1009] | – | – | – | +/− (+/− = pIC50 <4.00) | ++ (++ = pIC50 4.50-5.49) | – | +/− (+/− = pIC50 <4.00)
O=C(O)N1CCC(c2cc(C(F)(F)F)cc3cncn23)CC1 [Compound 1020] | – | – | – | + (+ = pIC50 4.00-4.49) | +/− (+/− = pIC50 <4.00) | ++ (++ = pIC50 4.50-5.49) | + (+ = pIC50 4.00-4.49)
CC(=O)N1CCN(c2cc(Cl)cc3cncn23)CC1(C)C [Compound 1031] | – | – | – | +++ (+++ = pIC50 ≥5.50) | +++ (+++ = pIC50 ≥5.50) | – | –
CS(=O)(=O)N1CCC(c2cc(C(F)(F)F)cc3cncn23)CC1 [Compound 1017] | – | – | – | ++ (++ = pIC50 4.50-5.49) | +/− (+/− = pIC50 <4.00) | + (+ = pIC50 4.00-4.49) | + (+ = pIC50 4.00-4.49)
CC(=O)N1CCN(c2cc(C(F)(F)F)cc3cncn23)CC1 [Compound 1018] | – | – | – | ++ (++ = pIC50 4.50-5.49) | + (+ = pIC50 4.00-4.49) | ++ (++ = pIC50 4.50-5.49) | ++ (++ = pIC50 4.50-5.49)
CN1C(=O)N(C2CCN(c3cc(C(F)(F)F)cc4cncn34)CC2)C(=O)C1(C)C [Compound 1034] | – | – | – | ++ (++ = pIC50 4.50-5.49) | ++ (++ = pIC50 4.50-5.49) | ++ (++ = pIC50 4.50-5.49) | ++ (++ = pIC50 4.50-5.49)
CC(=O)N1CCN(c2cc(Cl)cn3cncc23)CC1(C)C [Compound 1033] | – | – | – | +++ (+++ = pIC50 ≥5.50) | ++ (++ = pIC50 4.50-5.49) | – | –
CS(=O)(=O)c1ccc(-c2cc(C(F)(F)F)cn3cncc23)cc1 [Compound 1007] | – | – | – | +++ (+++ = pIC50 ≥5.50) | + (+ = pIC50 4.00-4.49) | – | + (+ = pIC50 4.00-4.49)
CS(=O)(=O)NC1CCN(c2cc(C(F)(F)F)cc3cncn23)CC1 [Compound 1027] | – | – | – | ++ (++ = pIC50 4.50-5.49) | ++ (++ = pIC50 4.50-5.49) | – | ++ (++ = pIC50 4.50-5.49)
CC(=O)Nc1ccc(C2CCN(c3cc(C(F)(F)F)cc4cncn34)CC2)cc1 [Compound 1024] | – | – | – | ++ (++ = pIC50 4.50-5.49) | +++ (+++ = pIC50 ≥5.50) | – | –
CNC(=O)c1ccc(C2CCN(c3cc(C(F)(F)F)cc4cncn34)CC2)cc1 [Compound 1025] | – | – | – | ++ (++ = pIC50 4.50-5.49) | +++ (+++ = pIC50 ≥5.50) | – | –
CC1(C)CN(c2cc(Cl)cn3cncc23)CCN1S(C)(=O)=O [Compound 1016] | – | – | – | +++ (+++ = pIC50 ≥5.50) | ++ (++ = pIC50 4.50-5.49) | – | –
CC(=O)N1CCN(c2cc(C(F)(F)F)cn3cncc23)CC1(C)C [Compound 1029] | – | – | – | +++ (+++ = pIC50 ≥5.50) | ++ (++ = pIC50 4.50-5.49) | – | –
CS(=O)(=O)N1CCN(c2cc(Cl)cn3cncc23)CC1 [Compound 1006] | – | – | – | ++ (++ = pIC50 4.50-5.49) | + (+ = pIC50 4.00-4.49) | – | ++ (++ = pIC50 4.50-5.49)
CC(=O)N1CCC(c2cc(C(F)(F)F)cn3cncc23)CC1 [Compound 1004] | – | – | – | + (+ = pIC50 4.00-4.49) | +/− (+/− = pIC50 <4.00) | – | + (+ = pIC50 4.00-4.49)
